According to patent US20070117770A1, “Human ribosomal DNA (rDNA) and ribosomal RNA (rRNA) nucleic acids and uses thereof” (Cylene Pharmaceuticals, Inc., priority 2005, published 2007):

Columns and labels:
Assay in all cases: Protein kinase inhibition assay
CK1(y) = type: biochemical, yeast; conditions: 2.5 μM
Protocol: (§1) Certain compounds were tested for activity in protein kinase inhibition assays. All substrates were dissolved and diluted to working stocks in de-ionized water, apart from histone H1 (10× working stock in 20 mM MOPS pH 7.0), PDKtide (10× working stock in 50 mM Tris pH 7.0) ATF2 (which is typically stored at a 20× working stock in 50 mM Tris pH 7.5, 150 mM NaCl, 0.1 mM EGTA, 0.03% Brij-35, 50% glycerol, 1 mM benzamidine, 0.2 mM PMSF and 0.1% R-mercaptoethanol), KKLNRTLSFAEPG (SEQ ID NO:203) and RRRLSFAEPG (SEQ ID NO:204) (50 mM HEPES pH 7.4) and GGEEEEYFELVKKKK (SEQ ID NO:205) (20 mM MOPS pH 7.0). All kinases were pre-diluted to a 10× working concentration prior to addition into the assay. The composition of the dilution buffer for each kinase is detailed below.
(§2) In a final reaction volume of 25 μl, CK1 (y) (5-10 mU) is incubated with 8 mM MOPS pH 7.0, 0.2 mM EDTA, 200 μM KRRRALS(p)VASLPGL (SEQ ID NO:214), 10 mM MgAcetate and [gamma-33P-ATP] (specific activity approx. 500 cpm/pmol, concentration as required). The reaction is initiated by the addition of the MgATP mix. After incubation for 40 minutes at room temperature, the reaction is stopped by the addition of 5 μL of a 3% phosphoric acid solution. 10 μl of the reaction is then spotted onto a P30 filtermat and washed three times for 5 minutes in 75 mM phosphoric acid and once in methanol prior to drying and scintillation counting.

MST1(h) = MST1(h) (Homo sapiens, UniProt Q13043); type: biochemical; conditions: read-out: percent residual activity of MST1(h)
Protocol: as §1
as §2, with “MST1 (h)” for “CK1 (y)”, “250” for “200”, “KKSRGDYMTMQIG” for “KRRRALS(p)VASLPGL”, “NO:210),” for “NO:214),”, “μl” for “μL”

CDK5/p35(h) = CDK5/p35(h) (Homo sapiens, UniProt Q00535); type: biochemical; conditions: read-out: percent residual activity of CDK5/p35(h)
Protocol: as §1
as §2, with “CDK5/p35 (h)” for “CK1 (y)”, “0.1 mg/ml histone H1,” for “200 μM KRRRALS(p)VASLPGL (SEQ ID NO:214),”, “μl” for “μL”

MRCKβ(h) = MRCKβ(h) (Homo sapiens, UniProt Q9Y5S2); type: biochemical; conditions: read-out: percent residual activity of MRCKβ(h)
Protocol: as §1
as §2, with “MRCKβ (h)” for “CK1 (y)”, “100” for “200”, “KKRNRTLTV” for “KRRRALS(p)VASLPGL”, “NO:219),” for “NO:214),”, “μl” for “μL”

Flt3(h) = Flt3(h) (Homo sapiens, UniProt P36888); type: biochemical; conditions: read-out: percent residual activity of Flt3(h)
Protocol: as §1
as §2, with “Flt3 (h)” for “CK1 (y)”, “50” for “200”, “EAIYAAPFAKKK” for “KRRRALS(p)VASLPGL”, “NO:206),” for “NO:214),”, “μl” for “μL”

FGFR3(h) = FGFR3(h) (Homo sapiens, UniProt P22607); type: biochemical; conditions: read-out: percent residual activity of FGFR3(h)
Protocol: as §1
as §2, with “FGFR3 (h)” for “CK1 (y)”, “0.1 mg/ml poly(Glu, Tyr) 4:1, 10 mM MnCl2,” for “200 μM KRRRALS(p)VASLPGL (SEQ ID NO:214),”, “[y-33P-ATP]” for “[gamma-33P-ATP]”, “μl” for “μL”, “Filtermat A” for “P30 filtermat”

Sequence of Flt3(h) (P36888 27-993): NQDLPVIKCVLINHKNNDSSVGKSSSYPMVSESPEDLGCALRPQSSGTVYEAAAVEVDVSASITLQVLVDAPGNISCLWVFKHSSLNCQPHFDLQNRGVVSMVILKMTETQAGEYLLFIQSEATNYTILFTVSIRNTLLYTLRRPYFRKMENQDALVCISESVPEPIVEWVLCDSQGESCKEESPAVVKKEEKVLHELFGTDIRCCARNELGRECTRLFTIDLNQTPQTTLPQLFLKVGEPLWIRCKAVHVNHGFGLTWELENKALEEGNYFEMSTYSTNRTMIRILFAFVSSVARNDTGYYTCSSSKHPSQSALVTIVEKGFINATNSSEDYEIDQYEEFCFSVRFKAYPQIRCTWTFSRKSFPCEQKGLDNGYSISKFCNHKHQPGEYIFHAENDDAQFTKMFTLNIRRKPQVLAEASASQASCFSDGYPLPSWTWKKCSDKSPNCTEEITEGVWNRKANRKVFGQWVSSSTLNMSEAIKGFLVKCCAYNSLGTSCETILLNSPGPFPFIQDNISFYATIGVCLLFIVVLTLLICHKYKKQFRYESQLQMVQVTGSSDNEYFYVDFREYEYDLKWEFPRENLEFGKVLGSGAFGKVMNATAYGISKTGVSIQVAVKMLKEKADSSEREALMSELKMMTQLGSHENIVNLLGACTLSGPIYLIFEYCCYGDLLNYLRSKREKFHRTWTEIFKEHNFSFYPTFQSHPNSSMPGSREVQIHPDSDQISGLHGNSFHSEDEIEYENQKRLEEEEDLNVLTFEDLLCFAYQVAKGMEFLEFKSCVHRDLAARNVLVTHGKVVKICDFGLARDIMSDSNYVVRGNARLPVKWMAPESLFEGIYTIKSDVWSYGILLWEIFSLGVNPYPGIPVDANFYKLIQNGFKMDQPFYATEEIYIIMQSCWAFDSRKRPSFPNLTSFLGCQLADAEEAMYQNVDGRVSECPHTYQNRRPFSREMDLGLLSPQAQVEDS
Sequence of MST1(h) (Q13043 whole entry): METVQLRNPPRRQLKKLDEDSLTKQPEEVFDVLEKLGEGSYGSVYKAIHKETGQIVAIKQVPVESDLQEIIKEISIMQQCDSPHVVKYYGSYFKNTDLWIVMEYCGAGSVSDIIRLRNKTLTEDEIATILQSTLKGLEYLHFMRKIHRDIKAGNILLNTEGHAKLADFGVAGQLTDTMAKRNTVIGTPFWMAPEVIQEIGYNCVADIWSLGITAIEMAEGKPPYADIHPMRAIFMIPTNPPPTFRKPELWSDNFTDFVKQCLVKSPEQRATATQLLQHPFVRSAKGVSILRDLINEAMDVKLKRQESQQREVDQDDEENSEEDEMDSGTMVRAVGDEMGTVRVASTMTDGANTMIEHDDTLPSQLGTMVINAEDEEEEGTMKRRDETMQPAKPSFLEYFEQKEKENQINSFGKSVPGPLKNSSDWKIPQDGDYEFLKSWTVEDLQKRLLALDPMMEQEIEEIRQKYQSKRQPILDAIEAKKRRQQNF
Sequence of FGFR3(h) (P22607 23-806): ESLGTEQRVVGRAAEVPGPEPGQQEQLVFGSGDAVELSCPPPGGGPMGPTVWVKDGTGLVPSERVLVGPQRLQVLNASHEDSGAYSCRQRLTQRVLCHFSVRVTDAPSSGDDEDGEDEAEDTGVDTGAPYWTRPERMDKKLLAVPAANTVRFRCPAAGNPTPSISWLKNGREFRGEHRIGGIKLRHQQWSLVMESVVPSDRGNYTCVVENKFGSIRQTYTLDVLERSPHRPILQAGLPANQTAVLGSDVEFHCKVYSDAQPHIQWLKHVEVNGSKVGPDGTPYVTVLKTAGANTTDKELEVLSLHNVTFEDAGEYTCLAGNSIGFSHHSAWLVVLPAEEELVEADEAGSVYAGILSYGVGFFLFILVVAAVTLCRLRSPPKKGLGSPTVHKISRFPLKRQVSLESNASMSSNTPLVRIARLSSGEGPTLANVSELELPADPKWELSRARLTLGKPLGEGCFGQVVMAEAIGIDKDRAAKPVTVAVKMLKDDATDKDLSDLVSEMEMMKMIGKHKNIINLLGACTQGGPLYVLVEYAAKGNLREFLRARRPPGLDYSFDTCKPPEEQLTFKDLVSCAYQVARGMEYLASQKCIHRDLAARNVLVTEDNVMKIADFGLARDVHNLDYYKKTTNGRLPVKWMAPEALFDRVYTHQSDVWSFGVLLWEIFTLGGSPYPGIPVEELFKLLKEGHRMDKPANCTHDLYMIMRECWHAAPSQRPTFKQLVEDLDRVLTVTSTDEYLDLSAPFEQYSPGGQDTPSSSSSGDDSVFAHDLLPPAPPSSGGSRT
Sequence of MRCKβ(h) (Q9Y5S2 whole entry): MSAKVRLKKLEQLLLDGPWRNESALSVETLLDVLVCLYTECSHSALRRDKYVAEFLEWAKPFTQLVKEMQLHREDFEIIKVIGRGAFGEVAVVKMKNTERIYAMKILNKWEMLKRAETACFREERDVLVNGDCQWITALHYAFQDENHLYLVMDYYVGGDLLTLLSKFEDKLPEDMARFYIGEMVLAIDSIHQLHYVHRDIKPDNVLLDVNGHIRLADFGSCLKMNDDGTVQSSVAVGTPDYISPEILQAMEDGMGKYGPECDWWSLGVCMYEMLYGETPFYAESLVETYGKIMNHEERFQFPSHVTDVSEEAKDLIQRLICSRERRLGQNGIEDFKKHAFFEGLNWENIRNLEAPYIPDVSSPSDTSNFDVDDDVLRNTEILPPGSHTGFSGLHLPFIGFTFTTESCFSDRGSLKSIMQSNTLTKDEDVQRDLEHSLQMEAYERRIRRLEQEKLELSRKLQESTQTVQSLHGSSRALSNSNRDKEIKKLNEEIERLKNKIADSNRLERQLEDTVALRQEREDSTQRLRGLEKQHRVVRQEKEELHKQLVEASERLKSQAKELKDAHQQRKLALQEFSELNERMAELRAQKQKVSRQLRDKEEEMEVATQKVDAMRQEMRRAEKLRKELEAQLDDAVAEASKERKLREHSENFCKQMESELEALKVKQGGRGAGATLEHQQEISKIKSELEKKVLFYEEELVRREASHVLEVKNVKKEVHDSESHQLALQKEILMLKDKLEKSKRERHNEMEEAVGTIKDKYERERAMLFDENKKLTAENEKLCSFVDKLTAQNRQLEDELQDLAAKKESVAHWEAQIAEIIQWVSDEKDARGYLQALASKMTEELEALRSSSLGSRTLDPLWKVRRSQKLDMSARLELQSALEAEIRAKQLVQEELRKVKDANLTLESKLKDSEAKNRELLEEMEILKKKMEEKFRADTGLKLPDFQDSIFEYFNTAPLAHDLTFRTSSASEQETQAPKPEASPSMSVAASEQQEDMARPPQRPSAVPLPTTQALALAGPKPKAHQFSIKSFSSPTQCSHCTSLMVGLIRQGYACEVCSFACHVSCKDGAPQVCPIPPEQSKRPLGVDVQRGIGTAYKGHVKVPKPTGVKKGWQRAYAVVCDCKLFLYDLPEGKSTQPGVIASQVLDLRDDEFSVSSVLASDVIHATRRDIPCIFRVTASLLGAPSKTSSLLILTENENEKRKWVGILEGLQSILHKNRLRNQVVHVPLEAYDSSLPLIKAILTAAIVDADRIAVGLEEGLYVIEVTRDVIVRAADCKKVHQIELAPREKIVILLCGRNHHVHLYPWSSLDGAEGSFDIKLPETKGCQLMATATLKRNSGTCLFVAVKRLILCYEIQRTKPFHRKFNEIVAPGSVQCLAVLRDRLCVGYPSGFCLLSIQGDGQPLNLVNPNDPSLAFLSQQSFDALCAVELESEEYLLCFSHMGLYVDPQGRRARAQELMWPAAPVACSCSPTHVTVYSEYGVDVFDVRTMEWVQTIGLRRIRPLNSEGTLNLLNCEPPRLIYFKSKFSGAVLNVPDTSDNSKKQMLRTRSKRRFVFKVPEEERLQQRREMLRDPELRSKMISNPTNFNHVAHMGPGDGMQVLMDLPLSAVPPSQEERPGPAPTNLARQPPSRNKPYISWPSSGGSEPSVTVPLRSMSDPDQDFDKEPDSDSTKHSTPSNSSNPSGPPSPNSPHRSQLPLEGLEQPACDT
Sequence of CDK5/p35(h) (Q00535 whole entry): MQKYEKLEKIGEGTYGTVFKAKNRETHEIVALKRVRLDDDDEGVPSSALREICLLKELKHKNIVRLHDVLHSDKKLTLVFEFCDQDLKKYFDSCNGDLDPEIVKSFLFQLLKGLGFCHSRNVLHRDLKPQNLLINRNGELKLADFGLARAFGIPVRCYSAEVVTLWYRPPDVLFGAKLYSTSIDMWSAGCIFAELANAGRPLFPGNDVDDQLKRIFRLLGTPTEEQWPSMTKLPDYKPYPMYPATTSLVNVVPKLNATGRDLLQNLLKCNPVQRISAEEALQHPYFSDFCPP
Sequence of CDK5/p35(h) (Q15078 whole entry partner): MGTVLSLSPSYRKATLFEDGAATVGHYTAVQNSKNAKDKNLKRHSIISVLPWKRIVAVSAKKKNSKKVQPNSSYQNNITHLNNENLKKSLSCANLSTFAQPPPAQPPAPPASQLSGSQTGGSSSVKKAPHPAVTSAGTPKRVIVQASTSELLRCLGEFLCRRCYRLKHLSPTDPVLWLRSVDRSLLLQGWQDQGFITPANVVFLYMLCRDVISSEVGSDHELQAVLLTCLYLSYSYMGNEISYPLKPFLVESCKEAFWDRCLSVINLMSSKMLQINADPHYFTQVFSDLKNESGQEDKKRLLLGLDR

Structure (SMILES)	percent residual activity of CK1(y) (CK1(y)) [%]	remaining activity at 2.5 µM (MST1(h)) [%]	remaining activity at 2.5 µM (CDK5/p35(h)) [%]	remaining activity at 2.5 µM (MRCKβ(h)) [%]	remaining activity at 2.5 µM (Flt3(h)) [%]	remaining activity at 2.5 µM (FGFR3(h)) [%]
CN1CCCC1CCNC(=O)c1cn2c3c(c(N4CCC(c5cnccn5)C4)c(F)cc3c1=O)Oc1cc3ccccc3cc1-2 (stereo not drawn) [Compound A-1]	78	76	83	84	32	101
CC(=O)N1CCN(c2ccc3c(=O)c(C(=O)NCCN4CCCC4)c4n(C)c5ccccc5n4c3n2)CC1 [Compound B-1]	77	96	104	102	100	116
